ChEMBL document CHEMBL6120982, “Cell-penetrating anti-sense peptide nucleic acids targeting sulfatase 2 inhibit adipogenesis in human mesenchymal stem cells” (Bioorg Med Chem, 2024)
Activity calls are given as the source filed them. The rule behind the calls is not given here.

Experiments:
[1] = Drug penetration in human BMMSC cells assessed as green fluorescence signal at 0.1 uM incubated for 24 hrs by DAPI staining based confocal microscopic analysis; format: ADME, cell-based; settings: mesenchymal stem cells
DNA [2] = assay: Binding affinity to C-terminal of 10-mer c-DNA (unknown origin) assessed as melting temperature at 4 uM by UV-Vis spectrophotometric analysis; format: nucleic-acid assay
Mesenchymal stem cells [3] = assay: Inhibition of SULF2 mRNA expression in human BMMSC cells at 0.1 uM by RT-qPCR analysis; format: functional, cell-based
Mesenchymal stem cells [4] = assay: Anti-adipogenic activity in insulin/dexamthasone/pioglitazone/IBMX differentiated human BMMSC cells assessed as downregulation of adiponectin protein secretion at 1 uM by ELISA; format: functional, cell-based
Mesenchymal stem cells [5] = assay: Anti-adipogenic activity in insulin/dexamthasone/pioglitazone/IBMX differentiated human BMMSC cells assessed as downregulation of adiponectin protein secretion by ELISA; format: functional, cell-based
Mesenchymal stem cells [6] = assay: Anti-adipogenic activity in insulin/dexamthasone/pioglitazone/IBMX differentiated human BMMSC cells assessed as decrease in number of intracellular lipid droplets by Oil red O staining based inverted microscopic analysis; format: functional, cell-based; settings: dose 0.01-1 µM
Mesenchymal stem cells [7] = assay: Anti-adipogenic activity in insulin/dexamthasone/pioglitazone/IBMX differentiated human BMMSC cells assessed as decrease in size of intracellular lipid droplets by Oil red O staining based inverted microscopic analysis; format: functional, cell-based; settings: dose 0.01-1 µM
Mesenchymal stem cells [8] = assay: Effect on osteogenesis in ascorbic acid/dexamethasone/beta-glycerol phosphate differentiated human BMMSC cells; format: functional, cell-based
Mesenchymal stem cells [9] = assay: Inhibition of SULF2 mRNA expression in human BMMSC cells by RT-qPCR analysis; format: functional, cell-based; settings: dose 0.01-1 µM
DNA [10] = assay: Binding affinity to N-terminal of 10-mer c-DNA (unknown origin) assessed as melting temperature at 4 uM by UV-Vis spectrophotometric analysis; format: nucleic-acid assay
Mesenchymal stem cells [11] = assay: Cytotoxicity against human BMMSC cells assessed as effect on cell viability upto 1 uM incubated for 24 hrs by CCK8 assay; format: toxicity, cell-based

Compound | Drug uptake [1] | Tm (DNA [2]) | inhibition (Mesenchymal stem cells [3]) | Activity (Mesenchymal stem cells [4]) | Activity (Mesenchymal stem cells [5]) | IC50 (Mesenchymal stem cells [5]) | Activity (Mesenchymal stem cells [6]) | Activity (Mesenchymal stem cells [7]) | Activity (Mesenchymal stem cells [8]) | inhibition (Mesenchymal stem cells [9]) | Tm (DNA [10]) | Activity (Mesenchymal stem cells [11])
O=C(O)c1ccc2c(c1)C(=O)OC21c2ccc(O)cc2Oc2cc(O)ccc21 | Active | – | – | – | – | – | – | – | – | – | – | –
Cc1cn(CC(=O)N(CCNC(=O)CN(CCNC(=O)CN(CCNC(=O)CN(CCNC(=O)CN(CCNC(=O)CN(CCNC(=O)CN(CCNC(=O)CN(CCNC(=O)CN(CCNC(=O)CN(CCNC(=O)CN(CCNC(=O)OCCC2c3ccccc3-c3ccccc32)C(=O)Cn2cc(C)c(=O)[nH]c2=O)C(=O)Cn2cnc3c(=O)[nH]c(N)nc32)C(=O)Cn2cnc3c(=O)[nH]c(N)nc32)C(=O)Cn2cnc3c(N)nc(NCCCCCN)nc32)C(=O)Cn2cnc3c(=O)[nH]c(N)nc32)C(=O)Cn2cnc3c(=O)[nH]c(N)nc32)C(=O)Cn2cnc3c(N)nc(NCCCCCN)nc32)C(=O)CN2C=NC3C(=O)NC(N)=NC32)C(=O)Cn2ccc(N)nc2=O)C(=O)Cn2cnc3c(=O)[nH]c(NCCCCCCN)nc32)CC(=O)NCCN(CC(=O)NCCN(CC(=O)NCCN(CC(=O)NCCN(CC(=O)NCCN(CC(=O)NCCN(CC(=O)NCCN(CC(=O)NCCN(CC(=O)NCCN(N)C(=O)Cn2cnc3c(=O)[nH]c(N)nc32)C(=O)Cn2cnc3c(N)nc(NCCCCCN)nc32)C(=O)Cn2ccc(N)nc2=O)C(=O)Cn2cnc3c(N)ncnc32)C(=O)Cn2cnc3c(N)ncnc32)C(=O)Cn2cnc3c(=O)[nH]c(NCCCCCCN)nc32)C(=O)Cn2cnc3c(=O)[nH]c(N)nc32)C(=O)Cn2cnc3c(N)ncnc32)C(=O)Cn2cnc3c(=O)[nH]c(N)nc32)c(=O)[nH]c1=O (configuration not stated) | – | 64 °C | Active | Active | Dose-dependent-effect | 280 nM | Dose-dependent-effect | Dose-dependent-effect | inactive | Dose-dependent-effect | 68.1 °C | Non-toxic
